{
  "source": "ChEMBL document CHEMBL3400138",
  "about": "“Synthesis of 3-azabicyclo[3.2.2]nonanes and their antiprotozoal activities” (Bioorg Med Chem Lett, 2015)",
  "key": {"[1]": {"test_system": "L6", "assay": "Cytotoxicity against rat L6 cells after 72 hrs by alamar blue assay", "type": "cell-based", "settings": "L6, 72 h"}, "[2]": {"test_system": "Plasmodium falciparum", "assay": "Antiplasmodial activity against chloroquine and pyrimethamine resistant Plasmodium falciparum K1 infected in human red blood cells assessed as reduction in parasite viability after 48 hrs by [3H]-hypoxanthine incorporation assay", "type": "functional, organism-based"}, "[3]": {"assay": "Selectivity index, ratio of CC50 for rat L6 cells to IC50 for chloroquine and pyrimethamine resistant Plasmodium falciparum K1", "type": "functional"}, "[4]": {"test_system": "Trypanosoma brucei rhodesiense", "assay": "Antitrypanosomal activity against Trypanosoma brucei rhodesiense STIB900 bloodstream forms after 72 hrs by alamar blue assay", "type": "functional, organism-based", "settings": "STIB900, 72 h"}, "[5]": {"assay": "Selectivity index, ratio of CC50 for rat L6 cells to IC50 for Trypanosoma brucei rhodesiense STIB900", "type": "functional"}, "[6]": {"test_system": "Plasmodium berghei", "assay": "Antiplasmodial activity against GFP-transfected Plasmodium berghei ANKA infected in NMRI mouse assessed as mean survival day at 50 mg/kg, ip administered 4, 24, 48 and 72 hrs post infection (reference value: 4 to 6 days)", "type": "functional", "settings": "route intraperitoneal"}, "[7]": {"test_system": "Plasmodium berghei", "assay": "Growth inhibition of Plasmodium berghei infected in mouse", "type": "functional"}, "[8]": {"test_system": "Plasmodium berghei", "assay": "Antiplasmodial activity against GFP-transfected Plasmodium berghei ANKA infected in NMRI mouse assessed as reduction in parasitemia at 50 mg/kg, ip administered 4, 24, 48 and 72 hrs post infection by FACS analysis", "type": "functional", "settings": "route intraperitoneal"}},
  "note": "pIC50: −log10 of the molar value.",
  "data": [
    {"smiles": "Cl.O=C1NCC2(N3CCOCC3)CC(c3ccccc3)C1C(c1ccccc1)C2", "note": "(configuration not stated)", "values": [
      {"measurement": "pIC50", "setting": "[1]", "value": "< 3.62"},
      {"measurement": "pIC50", "setting": "[2]", "value": "< 4.88"},
      {"measurement": "Ratio IC50", "setting": "[3]", "value": 18},
      {"measurement": "pIC50", "setting": "[4]", "value": 3.89},
      {"measurement": "Ratio IC50", "setting": "[5]", "value": 1.9}
    ]},
    {"smiles": "CN(C)C12CNCC(C(c3ccc(Cl)cc3)C1)C(c1ccc(Cl)cc1)C2.Cl", "note": "(configuration not stated)", "values": [
      {"measurement": "pIC50", "setting": "[1]", "value": 5.05},
      {"measurement": "pIC50", "setting": "[2]", "value": 6.11},
      {"measurement": "Ratio IC50", "setting": "[3]", "value": 11.63},
      {"measurement": "pIC50", "setting": "[4]", "value": 6.47},
      {"measurement": "Ratio IC50", "setting": "[5]", "value": 26.4}
    ]},
    {"smiles": "CN(C)C12CC(=O)NC(C(c3ccccc3)C1)C(c1ccccc1)C2.Cl", "note": "(racemic)", "values": [
      {"measurement": "Ratio IC50", "setting": "[5]", "value": 7.1}
    ]},
    {"smiles": "Cl.O=C1CC2(N3CCOCC3)CC(c3ccccc3)C(N1)C(c1ccccc1)C2", "note": "(racemic)", "values": [
      {"measurement": "pIC50", "setting": "[1]", "value": "< 3.62"},
      {"measurement": "pIC50", "setting": "[2]", "value": "< 4.88"},
      {"measurement": "Ratio IC50", "setting": "[3]", "value": 18},
      {"measurement": "pIC50", "setting": "[4]", "value": 3.86},
      {"measurement": "Ratio IC50", "setting": "[5]", "value": 1.7}
    ]},
    {"smiles": "Cl.O=C1CC2(N3CCCC3)CC(c3ccccc3)C(N1)C(c1ccccc1)C2", "note": "(racemic)", "values": [
      {"measurement": "Ratio IC50", "setting": "[3]", "value": 28.5},
      {"measurement": "Ratio IC50", "setting": "[5]", "value": 6.6}
    ]},
    {"smiles": "Cl.O=C1CC2(N3CCCCC3)CC(c3ccccc3)C(N1)C(c1ccccc1)C2", "note": "(racemic)", "values": [
      {"measurement": "Ratio IC50", "setting": "[5]", "value": 6.4}
    ]},
    {"smiles": "CN(C)C12CCNC(C(c3ccccc3)C1)C(c1ccccc1)C2.Cl", "note": "(racemic)", "values": [
      {"measurement": "MSD", "setting": "[6]", "value": 6.3, "unit": "days"},
      {"measurement": "growth inhibition (GI)", "setting": "[7]", "value": 35, "unit": "%"},
      {"measurement": "Ratio IC50", "setting": "[5]", "value": 181},
      {"measurement": "inhibition in vivo at 50 mg/kg", "setting": "[8]", "value": 35.1, "unit": "%"}
    ]},
    {"smiles": "Cl.c1ccc(C2CC3(N4CCOCC4)CCNC2C(c2ccccc2)C3)cc1", "note": "(racemic)", "values": [
      {"measurement": "pIC50", "setting": "[1]", "value": "< 3.68"},
      {"measurement": "pIC50", "setting": "[2]", "value": 5.16},
      {"measurement": "Ratio IC50", "setting": "[3]", "value": 30.22},
      {"measurement": "pIC50", "setting": "[4]", "value": 5.03},
      {"measurement": "Ratio IC50", "setting": "[5]", "value": 21.9}
    ]},
    {"smiles": "Cl.c1ccc(C2CC3(N4CCCC4)CCNC2C(c2ccccc2)C3)cc1", "note": "(racemic)", "values": [
      {"measurement": "Ratio IC50", "setting": "[5]", "value": 103}
    ]},
    {"smiles": "Cl.c1ccc(C2CC3(N4CCCCC4)CCNC2C(c2ccccc2)C3)cc1", "note": "(racemic)", "values": [
      {"measurement": "Ratio IC50", "setting": "[5]", "value": 13.7}
    ]},
    {"smiles": "CN(C)C12CCNC(C(c3ccc(Cl)cc3)C1)C(c1ccc(Cl)cc1)C2.Cl", "note": "(racemic)", "values": [
      {"measurement": "Ratio IC50", "setting": "[5]", "value": 143}
    ]},
    {"smiles": "Cl.Clc1ccc(C2CC3(N4CCCC4)CCNC2C(c2ccc(Cl)cc2)C3)cc1", "note": "(racemic)", "values": [
      {"measurement": "Ratio IC50", "setting": "[5]", "value": 152}
    ]}
  ]
}
